Assay results from patent publication US9926282B2, “Phthalazinones and isoquinolinones as rock inhibitors” (BRISTOL-MYERS SQUIBB COMPANY, priority 2013, dated 2018).

Columns and labels:
ROCK2 = ROCK2 (Homo sapiens (Human), UniProt O75116); experiment: ROCK assay (LABCHIP peptide phosphorylation), ROCK2; assay type: biochemical; details: 5 μM ATP, 1.5 μM peptide substrate
ROCK1 = ROCK1 (Homo sapiens (Human), UniProt Q13464); experiment: ROCK assay (LABCHIP peptide phosphorylation), ROCK1; assay type: biochemical; details: 5 μM ATP, 1.5 μM peptide substrate; read-out: ROCK1 IC50
Chain of ROCK1 (Q13464 whole entry, species assumed): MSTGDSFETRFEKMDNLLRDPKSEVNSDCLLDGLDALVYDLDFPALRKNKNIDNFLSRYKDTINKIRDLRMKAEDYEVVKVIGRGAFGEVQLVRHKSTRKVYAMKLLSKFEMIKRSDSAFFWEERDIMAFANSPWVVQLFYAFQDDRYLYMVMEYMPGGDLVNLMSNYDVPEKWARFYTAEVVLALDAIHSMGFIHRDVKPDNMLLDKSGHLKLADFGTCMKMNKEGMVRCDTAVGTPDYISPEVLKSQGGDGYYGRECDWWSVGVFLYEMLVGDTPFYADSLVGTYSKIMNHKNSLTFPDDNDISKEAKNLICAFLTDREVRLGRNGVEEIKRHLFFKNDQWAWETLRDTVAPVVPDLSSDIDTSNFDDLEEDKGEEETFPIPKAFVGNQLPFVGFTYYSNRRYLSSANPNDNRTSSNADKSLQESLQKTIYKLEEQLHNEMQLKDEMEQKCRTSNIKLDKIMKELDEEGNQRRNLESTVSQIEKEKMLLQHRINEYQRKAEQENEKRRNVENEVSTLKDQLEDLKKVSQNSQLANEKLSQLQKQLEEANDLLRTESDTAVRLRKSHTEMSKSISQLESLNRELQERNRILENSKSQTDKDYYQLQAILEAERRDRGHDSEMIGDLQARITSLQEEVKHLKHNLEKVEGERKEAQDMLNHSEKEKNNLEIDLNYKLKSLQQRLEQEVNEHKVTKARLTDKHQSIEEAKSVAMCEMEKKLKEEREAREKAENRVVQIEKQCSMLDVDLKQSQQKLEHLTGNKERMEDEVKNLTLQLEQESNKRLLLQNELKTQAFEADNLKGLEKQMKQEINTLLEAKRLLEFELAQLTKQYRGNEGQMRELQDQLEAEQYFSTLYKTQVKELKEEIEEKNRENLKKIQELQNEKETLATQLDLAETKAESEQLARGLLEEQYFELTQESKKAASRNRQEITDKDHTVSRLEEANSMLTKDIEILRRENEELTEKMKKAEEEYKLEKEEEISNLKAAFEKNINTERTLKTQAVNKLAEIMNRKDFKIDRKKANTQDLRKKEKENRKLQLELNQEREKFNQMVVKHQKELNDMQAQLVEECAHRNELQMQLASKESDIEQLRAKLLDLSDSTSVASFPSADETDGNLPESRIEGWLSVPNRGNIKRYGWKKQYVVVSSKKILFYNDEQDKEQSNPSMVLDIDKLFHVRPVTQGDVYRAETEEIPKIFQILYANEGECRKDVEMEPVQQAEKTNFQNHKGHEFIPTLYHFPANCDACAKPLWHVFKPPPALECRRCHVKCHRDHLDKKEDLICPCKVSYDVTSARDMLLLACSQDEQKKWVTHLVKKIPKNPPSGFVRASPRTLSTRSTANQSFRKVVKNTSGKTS

Chain of ROCK2 (O75116 whole entry, species assumed): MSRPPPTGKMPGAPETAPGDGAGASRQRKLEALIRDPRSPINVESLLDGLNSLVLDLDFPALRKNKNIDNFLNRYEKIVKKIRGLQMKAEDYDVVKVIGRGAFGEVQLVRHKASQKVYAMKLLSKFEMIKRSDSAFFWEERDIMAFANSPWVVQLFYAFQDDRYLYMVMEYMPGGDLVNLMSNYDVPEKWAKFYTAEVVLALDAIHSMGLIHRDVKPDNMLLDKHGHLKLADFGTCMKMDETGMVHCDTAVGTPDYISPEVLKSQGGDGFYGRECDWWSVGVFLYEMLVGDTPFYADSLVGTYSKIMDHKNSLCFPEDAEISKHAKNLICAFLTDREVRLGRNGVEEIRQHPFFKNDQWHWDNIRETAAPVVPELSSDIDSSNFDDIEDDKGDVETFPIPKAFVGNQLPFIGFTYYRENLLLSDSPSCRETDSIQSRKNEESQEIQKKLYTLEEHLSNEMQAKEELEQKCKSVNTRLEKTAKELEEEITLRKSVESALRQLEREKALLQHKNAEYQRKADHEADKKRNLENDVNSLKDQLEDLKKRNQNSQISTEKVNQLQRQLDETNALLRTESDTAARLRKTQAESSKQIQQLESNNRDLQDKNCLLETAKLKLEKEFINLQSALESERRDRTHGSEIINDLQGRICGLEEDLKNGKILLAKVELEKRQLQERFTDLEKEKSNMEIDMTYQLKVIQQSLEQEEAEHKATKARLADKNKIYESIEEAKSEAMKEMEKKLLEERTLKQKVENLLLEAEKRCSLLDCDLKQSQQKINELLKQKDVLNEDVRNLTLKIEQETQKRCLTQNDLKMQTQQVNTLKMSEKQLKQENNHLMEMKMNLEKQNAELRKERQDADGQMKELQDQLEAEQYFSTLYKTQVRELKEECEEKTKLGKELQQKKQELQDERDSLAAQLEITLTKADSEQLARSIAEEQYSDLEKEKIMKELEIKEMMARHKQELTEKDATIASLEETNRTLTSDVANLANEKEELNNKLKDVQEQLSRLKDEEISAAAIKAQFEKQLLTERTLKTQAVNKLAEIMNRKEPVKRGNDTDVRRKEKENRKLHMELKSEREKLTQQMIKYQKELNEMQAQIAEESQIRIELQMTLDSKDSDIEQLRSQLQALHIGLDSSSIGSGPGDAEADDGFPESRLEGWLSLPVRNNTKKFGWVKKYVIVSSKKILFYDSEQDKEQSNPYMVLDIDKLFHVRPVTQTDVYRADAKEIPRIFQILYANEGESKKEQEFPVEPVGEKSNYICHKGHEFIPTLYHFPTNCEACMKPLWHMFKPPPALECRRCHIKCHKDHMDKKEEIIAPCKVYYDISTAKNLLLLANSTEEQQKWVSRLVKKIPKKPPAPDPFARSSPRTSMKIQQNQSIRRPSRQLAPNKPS

Row | Compound | IC50 (ROCK2) [nM] | IC50 (ROCK1) [nM]
1 | O=C(Nc1ccc(-c2n[nH]c(=O)c3ccccc23)cc1)c1nn(CC2CCCCO2)c2ccccc12 (centres unmarked) [Example 168, 1-(oxan-2-ylmethyl)-N-[4-(4-oxo-3,4-dihydrophthalazin-1-yl)phenyl]-1H-indazole-3-carboxamide] | 0.1 to 100 | 0.1 to 100
2 | O=C(Cn1nc(C(=O)Nc2ccc(-c3n[nH]c(=O)c4ccccc34)cc2)c2ccccc21)NCC1(O)CCC1 [Example 335, 1-(2-(((1-Hydroxycyclobutyl)methyl)amino)-2-oxoethyl)-N-(4-(4-oxo-3,4-dihydrophthalazin-1-yl)phenyl)-1H-indazole-3-carboxamide] | 0.1 to 100 | 0.1 to 100
3 | COc1ccc2c(c1)CN(C(=O)Oc1ccc(-c3n[nH]c(=O)c4ccccc34)cc1)C2 [Example 70, 4-(4-Oxo-3,4-dihydrophthalazin-1-yl)phenyl 5-methoxyisoindoline-2-carboxylate] | 0.1 to 100 | 1000 to 50000
4 | CC(C(=O)N1CCc2ccccc21)c1ccc(-c2n[nH]c(=O)c3ccccc23)cc1 (centres unmarked) [Example 42, 4-(4-(1-(Indolin-1-yl)-1-oxopropan-2-yl)phenyl)phthalazin-1(2H)-one] | 0.1 to 100 | 1000 to 50000
5 | Cc1c(C(=O)Nc2ccc(-c3n[nH]c(=O)c4ccccc34)cc2)nnn1-c1ccccc1 [Example 400, 5-Methyl-N-(4-(4-oxo-3,4-dihydrophthalazin-1-yl)phenyl)-1-phenyl-1H-1,2,3-triazole-4-carboxamide] | 0.1 to 100 | 0.1 to 100
6 | Cc1nc(C(=O)Nc2ccc(-c3n[nH]c(=O)c4ccccc34)cc2)c[nH]1 [Example 242, 2-methyl-N-[4-(4-oxo-3,4-dihydrophthalazin-1-yl)phenyl]-1H-imidazole-4-carboxamide] | 0.1 to 100 | 101 to 1000
7 | O=C(Nc1ccc(-c2n[nH]c(=O)c3ccccc23)cc1)N1CC2(CCNCC2)c2ccccc21 [Example 371, N-(4-(4-Oxo-3,4-dihydrophthalazin-1-yl)phenyl)spiro[indoline-3,4′-piperidine]-1-carboxamide] | 101 to 1000 | 101 to 1000
8 | CN1CCN(C(=O)COc2ccc3c(c2)N(C(=O)Cc2ccc(-c4n[nH]c(=O)c5ccccc45)cc2)CC3)CC1 [Example 299, 4-(4-(2-(6-(2-(4-Methylpiperazin-1-yl)-2-oxoethoxy)indolin-1-yl)-2-oxoethyl)phenyl)phthalazin-1(2H)-one] | 0.1 to 100 | 101 to 1000
9 | CC(C)(O)Cn1nc(C(=O)Nc2ccc(-c3n[nH]c(=O)c4ccccc34)cc2)c2cc(F)ccc21 [Example 167, 5-fluoro-1-(2-hydroxy-2-methylpropyl)-N-[4-(4-oxo-3,4-dihydrophthalazin-1-yl)phenyl]-1H-indazole-3-carboxamide] | 0.1 to 100 | 0.1 to 100
10 | CC(C)(O)CCn1nc(C(=O)Nc2ccc(-c3n[nH]c(=O)c4ccccc34)cc2)c2ccccc21 [Example 333, 1-(3-Hydroxy-3-methylbutyl)-N-(4-(4-oxo-3,4-dihydrophthalazin-1-yl)phenyl)-1H-indazole-3-carboxamide] | 0.1 to 100 | 0.1 to 100
11 | Cc1cc(CC(=O)N2Cc3ccccc3C2)ccc1-c1n[nH]c(=O)c2ccccc12 [Example 260, 4-(4-(2-(Isoindolin-2-yl)-2-oxoethyl)-2-methylphenyl)phthalazin-1(2H)-one] | 0.1 to 100 | 101 to 1000
12 | CC(C)=Cn1nc(C(=O)Nc2ccc(-c3n[nH]c(=O)c4ccccc34)cc2)c2ccc(F)cc21 [Example 179, 6-fluoro-1-(2-methylprop-1-en-1-yl)-N-[4-(4-oxo-3,4-dihydrophthalazin-1-yl)phenyl]-1H-indazole-3-carboxamide] | 0.1 to 100 | 0.1 to 100
13 | 2-[4-(4-oxo-3,4- dihydrophthalazin-1- yl)phenyl]-N-[(1S,2R)- 2-phenylcyclopropyl] acetamide [Example 18] | 1000 to 50000 | 1000 to 50000
14 | COc1ccccc1N1CCC(C(=O)Nc2ccc(-c3n[nH]c(=O)c4ccccc34)cc2)C1=O (centres unmarked) [Example 216, 1-(2-methoxyphenyl)-2-oxo-N-[4-(4-oxo-3,4-dihydrophthalazin-1-yl)phenyl]pyrrolidine-3-carboxamide] | 101 to 1000 | 1000 to 50000

Now from value to compound:

Row | IC50 (ROCK2) [nM] | IC50 (ROCK1) [nM] | Compound
15 | 0.1 to 100 | 101 to 1000 | O=C(Nc1ccc(-c2n[nH]c(=O)c3ccccc23)cc1)c1csc(-c2ccc(C(F)(F)F)cc2)n1 [Example 48, N-[4-(4-oxo-3,4-dihydrophthalazin-1-yl)phenyl]-2-[4-(trifluoromethyl)phenyl]-1,3-thiazole-4-carboxamide]
16 | 0.1 to 100 | 101 to 1000 | O=C(Cc1ccc(-c2c[nH]c(=O)c3ccccc23)cc1)N1Cc2ccccc2C1 [Example 38, 4-(4-(2-(Isoindolin-2-yl)-2-oxoethyl)phenyl)isoquinolin-1(2H)-one]
17 | 0.1 to 100 | 0.1 to 100 | Cc1c(C(=O)Nc2ccc(-c3n[nH]c(=O)c4ccccc34)cc2)cnn1-c1ccccc1 [Example 189, 5-methyl-N-[4-(4-oxo-3,4-dihydrophthalazin-1-yl)phenyl]-1-phenyl-1H-pyrazole-4-carboxamide]
18 | 0.1 to 100 | 0.1 to 100 | COc1ccccc1-n1cc(C(=O)Nc2ccc(-c3n[nH]c(=O)c4ccccc34)cc2)nn1 [Example 406, 1-(2-Methoxyphenyl)-N-(4-(4-oxo-3,4-dihydrophthalazin-1-yl)phenyl)-1H-1,2,3-triazole-4-carboxamide]
19 | 0.1 to 100 | 0.1 to 100 | CC(C)Oc1ccc2cc(C(=O)Nc3ccc(-c4n[nH]c(=O)c5ccccc45)cc3)[nH]c2c1 [Example 128, N-[4-(4-oxo-3,4-dihydrophthalazin-1-yl)phenyl]-6-(propan-2-yloxy)-1H-indole-2-carboxamide]
20 | 101 to 1000 | 101 to 1000 | O=C(Nc1ccc(-c2n[nH]c(=O)c3ccccc23)cc1)c1cnn(CCCN2CCCC2)c1 [Example 399, N-(4-(4-Oxo-3,4-dihydrophthalazin-1-yl)phenyl)-1-(3-(pyrrolidin-1-yl)propyl)-1H-pyrazole-4-carboxamide]
21 | 0.1 to 100 | 0.1 to 100 | O=C(Nc1ccc(-c2n[nH]c(=O)c3ccccc23)cc1)c1cnn2ccccc12 [Example 103, N-[4-(4-oxo-3,4-dihydrophthalazin-1-yl)phenyl]pyrazolo[1,5-a]pyridine-3-carboxamide]
22 | 0.1 to 100 | 1000 to 50000 | O=C(Nc1ccc(-c2n[nH]c(=O)c3ccccc23)cc1)C1CCc2ccccc21 (centres unmarked) [Example 91, N-[4-(4-oxo-3,4-dihydrophthalazin-1-yl)phenyl]-2,3-dihydro-1H-indene-1-carboxamide]
23 | 1000 to 50000 | 1000 to 50000 | O=C(Nc1ccc(-c2n[nH]c(=O)c3ccccc23)cc1)c1c2ccccc2nn1CC1COC1 [Example 143, 2-(oxetan-3-ylmethyl)-N-[4-(4-oxo-3,4-dihydrophthalazin-1-yl)phenyl]-2H-indazole-3-carboxamide]
24 | 0.1 to 100 | 101 to 1000 | O=C(Cc1ccc(-c2n[nH]c(=O)c3ccccc23)cc1)Nc1ccc2ncsc2c1 [Example 21]
25 | 0.1 to 100 | 101 to 1000 | O=C(Nc1ccc(-c2n[nH]c(=O)c3ccccc23)cc1)c1cn2ccncc2n1 [Example 133, N-[4-(4-oxo-3,4-dihydrophthalazin-1-yl)phenyl]imidazo[1,2-a]pyrazine-2-carboxamide]
